In PMC6413231, “o-Vanillin Derived Schiff Bases and Their Organotin(IV) Compounds: Synthesis, Structural Characterisation, In-Silico Studies and Cytotoxicity” (International Journal of Molecular Sciences, 2019):

Legend:
[1] = test system: Du145 (prostate) cancer cells; assay: MTT growth inhibition assay, Du145; assay type: cell-based; conditions: 72 h, ± standard error, read-out: Growth Inhibition Concentration, GI50
Protocol: (§1) The Schiff bases and their organotin(IV) compounds were screened for in vitro cytotoxicity against a panel of 12 cancer cell lines: EJ-28 (muscle invasive bladder), RT-112 (minimum-invasive bladder), HT29 (colon), U87 and SJ-G2 (glioblastoma), MCF-7 (breast), A2780 (ovarian), H460 (lung), A431 (skin), DU145 (prostate), BE2-C (neuroblastoma), MIA (pancreatic) and one normal breast cell line (MCF-10A) using the MTT metabolic assay (Figure 6). After 72 h of incubation, a dose-dependent […] effect towards the cancer cell lines was measured at very low micromolar (µM) concentrations of the compounds. The growth inhibition concentration of the Schiff bases and their organotin(IV) compounds required to inhibit 50% cell proliferation relative to the cells that were treated with DMSO (control) are given in Table 2. The stability of these compounds was assessed in DMSO as well as in a mixture of DMSO-H2O. The absorbance obtained from UV-vis spectroscopy analysis was monitored for 72 h, and an unchanged pattern in the spectra was indicative that the compounds were stable in both the solvent systems tested.
(§2) For HT29 (colon), U87 and SJ-G2 (glioblastoma), MCF-7 (breast), A2780 (ovarian), H460 (lung), A431 (skin), Du145 (prostate), BE2-C (neuroblastoma), MIA (pancreas) cell lines and one normal breast cell line, MCF-10A (normal breast), the MTT assays were performed using the following method:
(§3) Stock solutions were prepared as follows and stored at −20 °C: Trial compounds were stored as 10 mM solutions in DMSO. All cell lines were cultured in a humidified atmosphere 5% CO2 at 37 °C. The cancer cell lines were maintained in Dulbecco’s modified Eagle’s medium (DMEM) (Trace Biosciences) supplemented with 10% foetal bovine serum, 10 mM sodium bicarbonate, penicillin (100 IU/mL), streptomycin (100 μg/mL) and glutamine (4 mM). The normal cell line, MCF-10A was cultured in DMEM:F12 (1:1) cell culture media, 5% heat inactivated horse serum, supplemented with penicillin (50 IU/mL), streptomycin (50 μg/mL), 20mM Hepes, L-glutamine (2 mM), epidermal growth factor (20 ng/mL), hydrocortisone (500 ng/mL), cholera toxin (100 ng/mL) and insulin (10 μg/mL).
(§4) Cells in logarithmic growth were transferred to 96-well plates. Cytotoxicity was determined by plating cells in duplicate in 100 μL medium at a density of 2500–4000 cells/well. On day 0 (24 h after plating), when the cells were in logarithmic growth, 100 μL medium, with or without the test agent, was added to each well. After 72 h drug exposure, growth inhibitory effects were evaluated using the MTT (3-[4,5-dimethylthiazol-2-yl]-2,5-diphenyltetrazolium bromide) assay and absorbance read at 540 nm. Percentage growth inhibition was determined at a fixed drug concentration of 25 μM. A value of 100% was indicative of complete cell growth inhibition. Those analogues showing appreciable percentage growth inhibition underwent further dose-response analysis allowing for the calculation of a GI50 value. This value is the drug concentration at which cell growth is 50% inhibited based on the difference between the optical density values on day 0 and those at the end of drug exposure.

[2] = test system: U87 (glioblastoma) cancer cells; assay: MTT growth inhibition assay, U87; assay type: cell-based; conditions: 72 h, ± standard error, read-out: Growth Inhibition Concentration, GI50
Protocol: as §1, §2, §3, §4

calf thymus DNA (CT-DNA) = assay: CT-DNA binding by UV-vis absorption titration; conditions: for Bathochromism Shift (nm) / Hypochromism, (%): CT-DNA, UV-vis absorption titration; for Gibbs Free Energy: interaction with CT-DNA
Protocol: Both theoretical and experimental DNA binding of the synthesised organotin(IV) compounds with DNA were investigated. The interaction of organotin(IV) compounds with CT-DNA was elucidated via UV-visible absorption spectroscopy. […] The absorption spectra of diphenyltin(IV) compounds at a constant concentration (50 μM) in the absence and the presence of different concentrations of CT-DNA are shown in Figure 8. Upon increasing concentrations of CT-DNA, hypochromism and bathochromism occurred at around 350–377 nm indicating strong π–π stacking interactions between the aromatic chromophore of the organotin(IV) compounds and the nitrogeneous pair of the DNA strand [11, 70]. The same hypochromism and bathochromism shifts were also observed in other transitions. In order to compare the binding strength of the organotin(IV) compounds to CT-DNA, the intrinsic binding constants (Kb) were quantitatively determined and are presented in Table 3.
DNA binding experiments were carried out at 25°C. DNA concentration per nucleotide was determined using the molar absorption coefficient (6600 M^−1 cm^−1) at 260 nm. […] Absorption titration experiments were performed maintaining the concentration of the organotin(IV) compounds solutions at 50 µM and gradually increasing the concentration of CT-DNA. The organotin(IV) compounds were dissolved in DMSO and diluted with Tris-HCI buffer at room temperature (25 °C). The solutions were scanned over 230–600 nm. Absorbance values were recorded 10 min after the addition of DNA solution. The binding constant, Kb was determined using the equation: [DNA]/(εa−εf)=[DNA]/(εb−εf)+1/Kb(εb−εf) where [DNA] is the concentration of DNA in base pairs, εa corresponds to the apparent molar extinction coefficient Aabs/[M], εf corresponds to the extinction coefficient for the free organotin [M] and εb corresponds to the extinction coefficient for the fully bound organotin compound.

[3] = test system: SJ-G2 (glioblastoma) cancer cells; assay: MTT growth inhibition assay, SJ-G2; assay type: cell-based; conditions: for GI50: MTT, 72 h, ± standard error, read-out: Growth Inhibition Concentration, GI50
Protocol: as §1, §2, §3, §4

[4] = test system: HT29 (colon) cancer cells; assay: MTT growth inhibition assay, HT29; assay type: cell-based; conditions: 72 h, ± standard error, read-out: Growth Inhibition Concentration, GI50
Protocol: as §1, §2, §3, §4

H460 (lung) cancer cells = assay: MTT growth inhibition assay, H460; assay type: cell-based; conditions: 72 h, ± standard error, read-out: Growth Inhibition Concentration, GI50
Protocol: as §1, §2, §3, §4

[5] = test system: MCF-7 (breast) cancer cells; assay: MTT growth inhibition assay, MCF-7; assay type: cell-based; conditions: MCF-7 cells, 72 h, ± standard error, read-out: Growth Inhibition Concentration, GI50
Protocol: as §1, §2, §3, §4

[6] = test system: MCF-10A (normal breast) cell line; assay: MTT growth inhibition assay, MCF10A; assay type: cell-based; conditions: MCF10A normal breast cells, 72 h, ± standard error, read-out: Growth Inhibition Concentration, GI50
Protocol: as §1, §2, §3, §4

[7] = test system: A2780 (ovarian) cancer cells; assay: MTT growth inhibition assay, A2780; assay type: cell-based; conditions: 72 h, ± standard error, read-out: Growth Inhibition Concentration, GI50
Protocol: as §1, §2, §3, §4

A431 (skin) cancer cells = assay: MTT growth inhibition assay, A431; assay type: cell-based; conditions: 72 h, ± standard error, read-out: Growth Inhibition Concentration, GI50
Protocol: as §1, §2, §3, §4

[8] = test system: BE2-C (neuroblastoma) cancer cells; assay: MTT growth inhibition assay, BE2-C; assay type: cell-based; conditions: 72 h, ± standard error, read-out: Growth Inhibition Concentration, GI50
Protocol: as §1, §2, §3, §4

Diphenyltin(IV) [Ph2Sn(S2MoVa), Diphenyltin(IV) [S-2-Methybenzyl-β-N-(2-hydroxy-3-methoxybenzylmethylene) dithiocarbazate]]
GI50 [1]: 1.7 ± 0.07 µM
GI50 [2]: 4.4 ± 1.7 µM
Bathochromism Shift (nm) (calf thymus DNA (CT-DNA)): 6 nm
Hypochromism, (%) (calf thymus DNA (CT-DNA)): 41.06%
Gibbs Free Energy (calf thymus DNA (CT-DNA)): -7.91 kcal/mol
greater activity than respective Schiff base ([3]; GI50 comparison): 3 fold
GI50 [3]: 0.84 ± 0.09 µM
GI50 [4]: 1.8 ± 0.13 µM
GI50 (H460 (lung) cancer cells): 2.8 µM
GI50 [5]: 1.4 ± 0.12 µM
GI50 [6]: 1.2 ± 0.3 µM
GI50 [7]: 0.23 ± 0.01 µM
GI50 (A431 (skin) cancer cells): 2.1 ± 0.09 µM
GI50 [8]: 0.47 ± 0.05 µM

Diphenyltin(IV) [Ph2Sn(S4MoVa), Diphenyltin(IV) [S-4-Methybenzyl-β-N-(2-hydroxy-3-methoxybenzylmethylene) dithiocarbazate]]
GI50 [1]: 1.5 ± 0.31 µM
GI50 [2]: 1.3 ± 0.4 µM
Bathochromism Shift (nm) (calf thymus DNA (CT-DNA)): 4 nm
Hypochromism, (%) (calf thymus DNA (CT-DNA)): 28.25%
Gibbs Free Energy (calf thymus DNA (CT-DNA)): -7.41 kcal/mol
GI50 [3]: 1 ± 0.16 µM
GI50 [4]: 0.87 ± 0.22 µM
GI50 (H460 (lung) cancer cells): 1.9 ± 0.23 µM
GI50 [5]: 0.82 ± 0.14 µM
GI50 [6]: 1.1 ± 0.37 µM
GI50 [7]: 0.35 ± 0.07 µM
GI50 (A431 (skin) cancer cells): 1.4 ± 0.38 µM
GI50 [8]: 0.53 ± 0.01 µM
